From patent US5686637A, “Antifungal agent” (Merck & Co., Inc., priority 1995, dated 1997)
Converted amounts (≈) assume the structure as drawn.

Assays:
[1] = tested on: Saccharomyces cerevisiae (MY 2140); test: microbroth dilution assay (MIC/MFC), Saccharomyces cerevisiae (MY 2140); format: cell-based; conditions: Saccharomyces cerevisiae (MY 2140)
Experimental: (§1) In the microbroth dilution assay, microorganisms were selected by streaking a yeast culture on Sabouraud dextrose agar (SDA) incubating for 24-48 hours at 35°-37° C., thereafter selected 3 to 5 characteristic colonies and transferring to a fresh plate and incubating under similar conditions. From the regrowth, 3 to 5 colonies were selected and suspended in. 10 milliliters of YM broth (Dffco) and incubated for 4 hours at 35°-37° C. shaking at 225 rpm. The 4 hour broth cultures were adjusted optically to 86% transmission resulting in a concentration of 1-5×10^6 cfu/ml which was further diluted 1:100 in YNBD (yeast nitrogen base with 1% dextrose) to obtain a concentration of 1-5×10^4 cfu/ml for use as inocula.
(§2) The test compound, Compound I, was prepared as a stock solution of 128 μg/ml in 20% methanol and 75 μl of said solution delivered to each well in column 1 of a 96-well, U-bottomed microtiter plate. The compounds in column 1 were then serially diluted two-fold to yield concentrations from 32 μg/ml to 0.15 μg/ml.
as §2, with “Amphotericin, the control” for “The test”, “compound,” for “compound, Compound I,”, “512” for “128”, “10% DMSO” for “20% methanol”, “128” for “32”, “0.6” for “0.15”
(§3) The plates containing the diluted compounds were then inoculated with 75 μl/well of the appropriate microorganism and incubated for 48 hours at 35°-37° C. with MIC (minimum inhibitory concentration) determinations carried out after 24 hours of incubation. Growth and sterility controls for each organism and sterility checks for the compounds also were carded out.
(§4) After recording MICs at 24 hours, the microtiter plates were shaken gently to resuspend the cells. A 1.5 μl sample was transferred from each well of the 96-well microtiter plate to a single reservoir inoculum plate containing SDA. The inoculated SDA and corresponding microtiter plates were incubated for 24 hours at 35°-37° C. For Cryptococus neoformans, SDA plates were inoculated at 48 hours after recording MICs and incubated 48 hours before reading the MFC. MFC is the lowest concentration of compound at which either no growth or growth of ≤4 colonies occur.

[2] = tested on: C. albicans (CLY539); test: microbroth dilution assay (MIC/MFC), C. albicans (CLY539); format: cell-based; conditions: Candida albicans, C. albicans (CLY539)
Experimental: as §1, §2
as §2, with “Amphotericin, the control” for “The test”, “compound,” for “compound, Compound I,”, “512” for “128”, “10% DMSO” for “20% methanol”, “128” for “32”, “0.6” for “0.15”
as §3, §4

[3] = tested on: C. guillermondii (MY 1019); test: microbroth dilution assay (MIC/MFC), C. guillermondii (MY 1019); format: cell-based; conditions: C. guillermondii (MY 1019)
Experimental: as §1, §2
as §2, with “Amphotericin, the control” for “The test”, “compound,” for “compound, Compound I,”, “512” for “128”, “10% DMSO” for “20% methanol”, “128” for “32”, “0.6” for “0.15”
as §3, §4

[4] = tested on: Cryptococcus neoformans (MY 2062); test: microbroth dilution assay (MIC), Cryptococcus neoformans (MY 2062); format: cell-based; conditions: 24 h; Cryptococcus neoformans (MY 2062); 35°-37° C.; SDA plates inoculated at 48 hours after recording MICs; read-out: Minimum Inhibitory Concentration (MIC)
Experimental: as §1
as §2, with “μg/ml. […]” for “μg/ml.”
(§5) After recording MICs at 24 hours, the microtiter plates were shaken gently to resuspend the cells. […] For Cryptococus neoformans, SDA plates were inoculated at 48 hours after recording MICs and incubated 48 hours before reading the MFC. […]

[5] = tested on: A. fumigatus (5668); test: microbroth dilution assay (MIC), A. fumigatus (5668); format: cell-based; conditions: Aspergillus fumigatus; A. fumigatus (5668); 24 h, 35°-37° C.; read-out: Minimum Inhibitory Concentration (MIC)
Experimental: as §1
as §2, with “μg/ml. […]” for “μg/ml.”
as §5

[6] = tested on: C. pseudotropicalis (MY 2099); test: microbroth dilution assay (MIC/MFC), C. pseudotropicalis (MY 2099); format: cell-based, Candida pseudotropicalis; conditions: Kluyveromyces marxianus, C. pseudotropicalis (MY 2099)
Experimental: as §1, §2
as §2, with “Amphotericin, the control” for “The test”, “compound,” for “compound, Compound I,”, “512” for “128”, “10% DMSO” for “20% methanol”, “128” for “32”, “0.6” for “0.15”
as §3, §4

[7] = tested on: C. albicans (CA2); test: microbroth dilution assay (MIC/MFC), C. albicans (CA2); format: cell-based; conditions: Candida albicans, C. albicans (CA2)
Experimental: as §1, §2
as §2, with “Amphotericin, the control” for “The test”, “compound,” for “compound, Compound I,”, “512” for “128”, “10% DMSO” for “20% methanol”, “128” for “32”, “0.6” for “0.15”
as §3, §4

[8] = tested on: filamentous fungi (AspergiIlus fiavus, Fusarium oxysporum, usalago zeae and the like); test: agar plate inhibition zone test, filamentous fungi; format: cell-based; conditions: agar plates, methanol solutions, 28° C. or 37° C., 24 hours
Experimental: Compound I is also useful for inhibiting the growth of filamentous fungi. Such use may be illustrated in the following tests with AspergiIlus fiavus, Fusarium oxysporum, usalago zeae and the like. Inocula for filamentous fungi are prepared by scraping the surface of stock plates maintained on potato dextrose agar with a moistened sterile dacron swab. The spores and mycelia are then suspended in 10 milliliters of sterile potato dextrose broth and adjusted to 70 percent transmission at 660 nm. The samples to be tested for production of antifungal agent are applied directly to the agar plates as methanol solutions. When the sample to be tested is crude broth, it may be centrifuged prior to application. The assay plates are then incubated at either 28° C. or 37° C. for 24 hours. Following incubation, the inhibition zones are measured. Growths are also noted as to appearance.

[9] = tested on: C. parapsilosis (MY 1010); test: microbroth dilution assay (MIC/MFC), C. parapsilosis (MY 1010); format: cell-based; conditions: Lodderomyces parapsilosis, C. parapsilosis (MY 1010)
Experimental: as §1, §2
as §2, with “Amphotericin, the control” for “The test”, “compound,” for “compound, Compound I,”, “512” for “128”, “10% DMSO” for “20% methanol”, “128” for “32”, “0.6” for “0.15”
as §3, §4

[10] = tested on: Aspergillus fumigatus (MF 4839); test: microbroth dilution assay (MIC), Aspergillus fumigatus (MF 4839); format: cell-based; conditions: Aspergillus fumigatus (MF 4839); 24 h, 35°-37° C.; read-out: Minimum Inhibitory Concentration (MIC)
Experimental: as §1
as §2, with “μg/ml. […]” for “μg/ml.”
as §5

[11] = tested on: panel of fungi; test: broth microdilution assay against a panel of fungi; format: cell-based; conditions: MIC and MFC
Experimental: as §1
as §2, with “μg/ml. […]” for “μg/ml.”
as §5

[12] = tested on: C. tropicalis (MY1124); test: microbroth dilution assay (MIC/MFC), C. tropicalis (MY1124); format: cell-based; conditions: Candida tropicalis, C. tropicalis (MY1124)
Experimental: as §1, §2
as §2, with “Amphotericin, the control” for “The test”, “compound,” for “compound, Compound I,”, “512” for “128”, “10% DMSO” for “20% methanol”, “128” for “32”, “0.6” for “0.15”
as §3, §4

[13] = tested on: C. topicalis (MY1012); test: microbroth dilution assay (MIC/MFC), C. topicalis (MY1012); format: cell-based; conditions: C. topicalis (MY1012)
Experimental: as §1, §2
as §2, with “Amphotericin, the control” for “The test”, “compound,” for “compound, Compound I,”, “512” for “128”, “10% DMSO” for “20% methanol”, “128” for “32”, “0.6” for “0.15”
as §3, §4

[14] = tested on: Candida albicans (MY 1055); test: microbroth dilution assay (MIC/MFC), Candida albicans (MY 1055); format: cell-based; conditions: Candida albicans (MY 1055)
Experimental: as §1, §2
as §2, with “Amphotericin, the control” for “The test”, “compound,” for “compound, Compound I,”, “512” for “128”, “10% DMSO” for “20% methanol”, “128” for “32”, “0.6” for “0.15”
as §3, §4

[15] = tested on: C. glabrata (MY1381); test: microbroth dilution assay (MIC/MFC), C. glabrata (MY1381); format: cell-based; conditions: Nakaseomyces glabratus, C. glabrata (MY1381)
Experimental: as §1, §2
as §2, with “Amphotericin, the control” for “The test”, “compound,” for “compound, Compound I,”, “512” for “128”, “10% DMSO” for “20% methanol”, “128” for “32”, “0.6” for “0.15”
as §3, §4

[16] = 24 h, 35°-37° C., read-out: Minimum Inhibitory Concentration (MIC)
[17] = no growth or ≤4 colonies on SDA after 24 h, read-out: Minimum Fungicidal Concentration (MFC)

Structure (SMILES): CCCCCCCCCCC(C)C(O)C(C)/C=C(C)/C=C(\C)C(=O)C(C)/C=C(\C)C(=O)OC(CO)C(O)C(O)C(=O)O (stereo not shown) [Compound I]
- MIC [1, 16]: 4 µg/mL (≈ 6.7 µM)
- MFC [1, 17]: 4 µg/mL (≈ 6.7 µM)
- MIC [2, 16]: 2 µg/mL (≈ 3.35 µM)
- MFC [2, 17]: 2 µg/mL (≈ 3.35 µM)
- MIC [3, 16]: 4 µg/mL (≈ 6.7 µM)
- MFC [3, 17]: 16 µg/mL (≈ 26.8 µM)
- MIC [4]: 2 µg/mL (≈ 3.35 µM)
- MIC [5]: > 32 µg/mL
- MIC [6, 16]: 1 µg/mL (≈ 1.68 µM)
- MFC [6, 17]: 1 µg/mL (≈ 1.68 µM)
- MIC [7, 16]: 2 µg/mL (≈ 3.35 µM)
- MFC [7, 17]: 2 µg/mL (≈ 3.35 µM)
- inhibition of growth of fungal organisms (inhibition zones) [8]: effectively inhibit growth of the fungal organisms
- MIC [9, 16]: 2 µg/mL (≈ 3.35 µM)
- MFC [9, 17]: 2 µg/mL (≈ 3.35 µM)
- MIC [10]: > 32 µg/mL
- effective concentrations against a panel of fungi compared with amphotericin B [11]: effective at concentrations comparable to an established antifungal agent, amphotericin B
- MIC [12, 16]: 2 µg/mL (≈ 3.35 µM)
- MFC [12, 17]: 2 µg/mL (≈ 3.35 µM)
- MIC [13, 16]: 1 µg/mL (≈ 1.68 µM)
- MFC [13, 17]: 0.5 µg/mL (≈ 0.838 µM)
- MIC [14, 16]: 2 µg/mL (≈ 3.35 µM)
- MFC [14, 17]: 2 µg/mL (≈ 3.35 µM)
- MIC [15, 16]: 4 µg/mL (≈ 6.7 µM)
- MFC [15, 17]: 4 µg/mL (≈ 6.7 µM)
